# Assay results from patent US20260285850A1, “SUBSTITUTED OXAZOLIDINONES AND IMIDAZOLINONES AS HERBICIDES” (FMC CORPORATION, priority 2023, published 2026).
# Tests used:
# Format in all cases: in vivo
# [1] = system: barnyardgrass (Echinochloa crus-galli); assay: Test A preemergence soil spray, visual injury rating 0-100; conditions: 10 days
# In short: (§1)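 Seeds sown in loam-sand blend got a preemergence directed soil spray, or emerged plants (2-10 cm, one- to two-leaf) got a postemergence spray, of compound in non-phytotoxic solvent with surfactant. After 10 days in greenhouse, injury rated visually versus untreated controls on a 0 (no effect) to 100 (complete control) scale.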
# [2] = system: blackgrass (Alopecurus myosuroides); assay: as above; conditions: 10 days
# In short: as §1
# corn (Zea mays) [3] = assay: as above; conditions: 10 days
# In short: as §1
# [4] = system: green foxtail (Setaria viridis); assay: as above; conditions: 10 days
# In short: as §1
# kochia (Bassia scoparia) [5] = assay: as above; conditions: 10 days
# In short: as §1
# [6] = system: oat, wild (wild oat, Avena fatua); assay: as above; conditions: 10 days
# In short: as §1
# [7] = system: palmer (palmer amaranth, palmer pigweed, Amaranthus palmeri); assay: as above; conditions: 10 days
# In short: as §1
# [8] = system: ragweed (common ragweed, Ambrosia artemisiifolia); assay: as above; conditions: 10 days
# In short: as §1
# [9] = system: ryegrass, Italian (italian ryegrass, Lolium multiflorum); assay: as above; conditions: 10 days
# In short: as §1
# soybean (Glycine max) [10] = assay: as above; conditions: 10 days
# In short: as §1
# [11] = system: wheat (Triticum aestivum); assay: as above; conditions: 10 days
# In short: as §1
# [12] = system: barnyardgrass (Echinochloa crus-galli); assay: Test A postemergence application, visual injury rating 0-100
# In short: as §1
# [13] = system: blackgrass (Alopecurus myosuroides); assay: as above
# In short: as §1
# corn (Zea mays) [14] = assay: as above
# In short: as §1
# [15] = system: galium (catchweed bedstraw, Galium aparine); assay: as above
# In short: as §1
# [16] = system: green foxtail (Setaria viridis); assay: as above
# In short: as §1
# [17] = system: horseweed (Erigeron canadensis); assay: as above
# In short: as §1
# kochia (Bassia scoparia) [18] = assay: as above
# In short: as §1
# [19] = system: oat, wild (wild oat, Avena fatua); assay: as above
# In short: as §1
# [20] = system: palmer (palmer amaranth, palmer pigweed, Amaranthus palmeri); assay: as above
# In short: as §1
# [21] = system: ragweed (common ragweed, Ambrosia artemisiifolia); assay: as above
# In short: as §1
# [22] = system: ryegrass, Italian (italian ryegrass, Lolium multiflorum); assay: as above
# In short: as §1
# soybean (Glycine max) [23] = assay: as above
# In short: as §1
# [24] = system: wheat (Triticum aestivum); assay: as above
# In short: as §1
# [25] = system: barnyardgrass (Echinochloa crusgalli); assay: Test B flooded paddy test, visual plant response rating 0-100; conditions: 250 g ai/ha, Flood, applied to paddy water, evaluated after 13 days
# In short: (§2)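 Paddy-water application: test compounds went directly into water flooded 3 cm above the soil surface, with plants at 2 leaves. After a 13-day greenhouse period, responses were judged by eye relative to controls; a dash marks an untested entry.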
# [26] = system: ducksalad (Heteranthera limosa); assay: as above; conditions: 250 g ai/ha, Flood, applied to paddy water, evaluated after 13 days
# In short: as §2
# rice (Oryza sativa) = assay: as above; conditions: 250 g ai/ha, Flood, applied to paddy water, evaluated after 13 days
# In short: as §2
# [27] = system: sedge, umbrella (small-flower umbrella sedge, Cyperus difformis); assay: as above; conditions: 250 g ai/ha, Flood, applied to paddy water, evaluated after 13 days
# In short: as §2
# [28] = 62 g ai/ha, 0 = no effect, 100 = complete control
# [29] = 62 g ai/ha, postemergence, 10 days, 0 = no effect, 100 = complete control
# [30] = Postemergence, 16 g ai/ha, greenhouse 10 days, 0 no effect, 100 complete control
smiles,measurement,setting,value
C=CC1(C(=O)NC2C=CC(C(=O)O)C2)CN(c2cc(F)cc(F)c2)C(=O)O1 (mixture of isomers) [Compound 166],Barnyardgrass plant response rating,"[1]; 16 g ai/ha, 0 to 100 scale",40
same,Barnyardgrass plant response rating (0-100),[1]; [28],100
same,Blackgrass plant response rating,"[2]; 16 g ai/ha, 0 to 100 scale",10
same,Blackgrass plant response rating (0-100),[2]; [28],70
same,Corn plant response rating,"corn (Zea mays) [3]; 16 g ai/ha, 0 to 100 scale",20
same,Corn plant response rating (0-100),corn (Zea mays) [3]; [28],60
same,"Foxtail, Green plant response rating","[4]; 16 g ai/ha, 0 to 100 scale",0
same,"Foxtail, Green plant response rating (0-100)",[4]; [28],50
same,Kochia plant response rating,"kochia (Bassia scoparia) [5]; 16 g ai/ha, 0 to 100 scale",0
same,Kochia plant response rating (0-100),kochia (Bassia scoparia) [5]; [28],60
same,"Oat, Wild plant response rating","[6]; 16 g ai/ha, 0 to 100 scale",0
same,"Oat, Wild plant response rating (0-100)",[6]; [28],60
same,"Pigweed, Palmer plant response rating","[7]; 16 g ai/ha, 0 to 100 scale",20
same,"Pigweed, Palmer plant response rating (0-100)",[7]; [28],100
same,Ragweed plant response rating,"[8]; 16 g ai/ha, 0 to 100 scale",0
same,Ragweed plant response rating (0-100),[8]; [28],30
same,"Ryegrass, Italian plant response rating","[9]; 16 g ai/ha, 0 to 100 scale",0
same,"Ryegrass, Italian plant response rating (0-100)",[9]; [28],90
same,Soybean plant response rating,"soybean (Glycine max) [10]; 16 g ai/ha, 0 to 100 scale",20
same,Soybean plant response rating (0-100),soybean (Glycine max) [10]; [28],90
same,Wheat plant response rating,"[11]; 16 g ai/ha, 0 to 100 scale",60
same,Wheat plant response rating (0-100),[11]; [28],90
same,Barnyardgrass plant response rating (0-100),[12]; [29],100
same,Barnyardgrass plant response rating (0 to 100 scale),[12]; [30],90
same,Blackgrass plant response rating (0-100),[13]; [29],90
same,Blackgrass plant response rating (0 to 100 scale),[13]; [30],70
same,Corn plant response rating (0-100),corn (Zea mays) [14]; [29],100
same,Corn plant response rating (0 to 100 scale),corn (Zea mays) [14]; [30],90
same,Galium plant response rating (0-100),[15]; [29],90
same,Galium plant response rating (0 to 100 scale),[15]; [30],70
same,"Foxtail, Green plant response rating (0-100)",[16]; [29],90
same,"Foxtail, Green plant response rating (0 to 100 scale)",[16]; [30],30
same,Horseweed plant response rating (0-100),[17]; [29],80
same,Horseweed plant response rating (0 to 100 scale),[17]; [30],50
same,Kochia plant response rating (0-100),kochia (Bassia scoparia) [18]; [29],80
same,Kochia plant response rating (0 to 100 scale),kochia (Bassia scoparia) [18]; [30],80
same,"Oat, Wild plant response rating (0-100)",[19]; [29],90
same,"Oat, Wild plant response rating (0 to 100 scale)",[19]; [30],90
same,"Pigweed, Palmer plant response rating (0-100)",[20]; [29],90
same,"Pigweed, Palmer plant response rating (0 to 100 scale)",[20]; [30],90
same,Ragweed plant response rating (0-100),[21]; [29],70
same,Ragweed plant response rating (0 to 100 scale),[21]; [30],40
same,"Ryegrass, Italian plant response rating (0-100)",[22]; [29],90
same,"Ryegrass, Italian plant response rating (0 to 100 scale)",[22]; [30],60
same,Soybean plant response rating (0-100),soybean (Glycine max) [23]; [29],100
same,Soybean plant response rating (0 to 100 scale),soybean (Glycine max) [23]; [30],80
same,Wheat plant response rating (0-100),[24]; [29],90
same,Wheat plant response rating (0 to 100 scale),[24]; [30],90
same,"Plant response rating, Barnyardgrass (0 to 100 scale, 0 is no effect and 100 is complete control)",[25],95
same,"Plant response rating, Ducksalad (0 to 100 scale, 0 is no effect and 100 is complete control)",[26],85
same,"Plant response rating, Rice (0 to 100 scale, 0 is no effect and 100 is complete control)",rice (Oryza sativa),80
same,"Plant response rating, Sedge, Umbrella (0 to 100 scale, 0 is no effect and 100 is complete control)",[27],95
